These results are taken from patent publication US8802661B2, “C-28 amides of modified C-3 betulinic acid derivatives as HIV maturation inhibitors” (priority 2010, dated 2014).

Each structure is given as a SMILES string. Structures can show the parent of a compound that is named as a salt.

The EC50 is the concentration giving half of the maximal effect.

One assay concerns recombinant NL4-3 virus (Renilla luciferase in nef, Gag P373S). Briefly: HIV Cell Culture Assay (luciferase reporter virus in MT-2 cells). In kind it is cell-based. As to conditions: NL43. In short, it runs like this:
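Inhibitor potency against the reporter virus comes from reduced luciferase activity in infected MT-2 cells exposed to a dilution series of compound over 4-5 days.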
Take `C=C(C)[C@@H]1CC[C@]2(C(=O)Nc3nc(C(=O)O)c(C)s3)CC[C@]3(C)[C@H](CC[C@@H]4[C@@]5(C)CC=C(c6ccc(C(=O)O)cc6)C(C)(C)[C@@H]5CC[C@]43C)[C@@H]12` [Example 47, 2-((1R,3aS,5aR,5bR,7aR,11aS,11bR,13aR,13bR)-9-(4-carboxyphenyl)-5a,5b,8,8,11a-pentamethyl-1-(prop-1-en-2-yl)-2,3,3a,4,5,5a,5b,6,7,7a,8,11,11a,11b,12,13,13a,13b-octadecahydro-1H-cyclopenta[a]chrysene-3a-carboxamido)-5-methylthiazole-4-carboxylic acid]: the EC50 stood at 8.7 nM.

Staying with this assay, now noted: NL43, read-out: EC50 Group.
As to `C=C(C)[C@@H]1CC[C@]2(C(=O)NCCN(CCC)CC(=O)O)CC[C@]3(C)[C@H](CC[C@@H]4[C@@]5(C)CC=C(c6ccc(C(=O)O)cc6)C(C)(C)[C@@H]5CC[C@]43C)[C@@H]12` [Example 94, 4-((1R,3aS,5aR,5bR,7aR,11aS,11bR,13aR,13bR)-3a-(2-((carboxymethyl)(propyl)amino)ethylcarbamoyl)-5a,5b,8,8,11a-pentamethyl-1-(prop-1-en-2-yl)-2,3,3a,4,5,5a,5b,6,7,7a,8,11,11a,11b,12,13,13a,13b-octadecahydro-1H-cyclopenta[a]chrysen-9-yl)benzoic acid], the EC50 is under 100 nM. On the same count and under the same terms, to `C=C(C)[C@@H]1CC[C@]2(C(=O)N3CCN(CCO)CC3)CC[C@]3(C)[C@H](CC[C@@H]4[C@@]5(C)CC=C(c6ccc(C(=O)O)cc6)C(C)(C)[C@@H]5CC[C@]43C)[C@@H]12` [Example 13, 4-((1R,3aS,5aR,5bR,7aR,11aS,11bR,13aR,13bR)-3a-(4-(2-hydroxyethyl)piperazine-1-carbonyl)-5a,5b,8,8,11a-pentamethyl-1-(prop-1-en-2-yl)-2,3,3a,4,5,5a,5b,6,7,7a,8,11,11a,11b,12,13,13a,13b-octadecahydro-1H-cyclopenta[a]chrysen-9-yl)benzoic acid, TFA] belongs under 100 nM; to `C[C@H]1[C@H](C)CC[C@]2(C(=O)NCCCN3CCS(=O)(=O)CC3)CC[C@]3(C)C(=CC[C@@H]4[C@@]5(C)CC=C(c6ccc(C(=O)O)cc6)C(C)(C)[C@@H]5CC[C@]43C)[C@H]12` [Example A2, 4-((4aR,6aR,6bS,8aS,11R,12S,12aS,14aR,14bS)-8a-((3-(1,1-dioxido-4-thiomorpholinyl)propyl)carbamoyl)-4,4,6a,6b,11,12,14b-heptamethyl-1,4,4a,5,6,6a,6b,7,8,8a,9,10,11,12,12a,14,14a,14b-octadecahydro-3-picenyl)benzoic acid], under 100 nM; to `C=C(C)[C@@H]1CC[C@]2(C(=O)N(CCO)CCN(C)C)CC[C@]3(C)[C@H](CC[C@@H]4[C@@]5(C)CC=C(c6ccc(C(=O)O)cc6)C(C)(C)[C@@H]5CC[C@]43C)[C@@H]12` [Example 77, 4-((1R,3aS,5aR,5bR,7aR,11aS,11bR,13aR,13bR)-3a-((2-(dimethylamino)ethyl)(2-hydroxyethyl)carbamoyl)-5a,5b,8,8,11a-pentamethyl-1-(prop-1-en-2-yl)-2,3,3a,4,5,5a,5b,6,7,7a,8,11,11a,11b,12,13,13a,13b-octadecahydro-1H-cyclopenta[a]chrysen-9-yl)benzoic acid], over 100 nM. Still for that read-out and setting: to `C=C(C)[C@@H]1CC[C@]2(C(=O)NCCNC(C)=O)CC[C@]3(C)[C@H](CC[C@@H]4[C@@]5(C)CC=C(c6ccc(C(=O)O)cc6)C(C)(C)[C@@H]5CC[C@]43C)[C@@H]12` [Example 30, 4-((1R,3aS,5aR,5bR,7aR,11aS,11bR,13aR,13bR)-3a-(2-acetamidoethylcarbamoyl)-5a,5b,8,8,11a-pentamethyl-1-(prop-1-en-2-yl)-2,3,3a,4,5,5a,5b,6,7,7a,8,11,11a,11b,12,13,13a,13b-octadecahydro-1H-cyclopenta[a]chrysen-9-yl)benzoic acid] belongs under 100 nM.

As to `C=C(C)[C@@H]1CC[C@]2(C(=O)NCCN3CCC(F)(F)CC3)CC[C@]3(C)[C@H](CC[C@@H]4[C@@]5(C)CC=C(c6ccc(C(=O)O)c(F)c6)C(C)(C)[C@@H]5CC[C@]43C)[C@@H]12` [Example 117, 4-((1R,3aS,5aR,5bR,7aR,11aS,11bR,13aR,13bR)-3a-(2-(4,4-difluoropiperidin-1-yl)ethylcarbamoyl)-5a,5b,8,8,11a-pentamethyl-1-(prop-1-en-2-yl)-2,3,3a,4,5,5a,5b,6,7,7a,8,11,11a,11b,12,13,13a,13b-octadecahydro-1H-cyclopenta[a]chrysen-9-yl)-2-fluorobenzoic acid], the EC50 was under 100 nM.

`C=C(C)[C@@H]1CC[C@]2(C(=O)NC)CC[C@]3(C)[C@H](CC[C@@H]4[C@@]5(C)CC=C(c6ccc(C(=O)O)cc6)C(C)(C)[C@@H]5CC[C@]43C)[C@@H]12` [Example 26, 4-((1R,3aS,5aR,5bR,7aR,11aS,11bR,13aR,13bR)-5a,5b,8,8,11a-pentamethyl-3a-(methylcarbamoyl)-1-(prop-1-en-2-yl)-2,3,3a,4,5,5a,5b,6,7,7a,8,11,11a,11b,12,13,13a,13b-octadecahydro-1H-cyclopenta[a]chrysen-9-yl)benzoic acid]: the EC50 was under 100 nM. Still for that read-out and setting: to `C=C(C)[C@@H]1CC[C@]2(C(=O)NCCC(C)C)CC[C@]3(C)[C@H](CC[C@@H]4[C@@]5(C)CC=C(c6ccc(C(=O)O)cc6)C(C)(C)[C@@H]5CC[C@]43C)[C@@H]12` [Example 129, 4-((1R,3aS,5aR,5bR,7aR,11aS,11bR,13aR,13bR)-3a-(isopentylcarbamoyl)-5a,5b,8,8,11a-pentamethyl-1-(prop-1-en-2-yl)-2,3,3a,4,5,5a,5b,6,7,7a,8,11,11a,11b,12,13,13a,13b-octadecahydro-1H-cyclopenta[a]chrysen-9-yl)benzoic acid] belongs under 100 nM. `C=C(C)[C@@H]1CC[C@]2(C(=O)N[C@@H](CCSC)C(=O)O)CC[C@]3(C)[C@H](CC[C@@H]4[C@@]5(C)CC=C(c6ccc(C(=O)O)cc6)C(C)(C)[C@@H]5CC[C@]43C)[C@@H]12` [Example 63, 4-((1R,3aS,5aR,5bR,7aR,11aS,11bR,13aR,13bR)-3a-((S)-1-carboxy-3-(methylthio)propylcarbamoyl)-5a,5b,8,8,11a-pentamethyl-1-(prop-1-en-2-yl)-2,3,3a,4,5,5a,5b,6,7,7a,8,11,11a,11b,12,13,13a,13b-octadecahydro-1H-cyclopenta[a]chrysen-9-yl)benzoic acid]: the EC50 is over 100 nM. The same measure, in the same setting: to `C=C(C)[C@@H]1CC[C@]2(C(=O)NCCCN3CCS(=O)(=O)CC3)CC[C@]3(C)[C@H](CC[C@@H]4[C@@]5(C)CC=C(c6cc(F)c(C(=O)O)c(F)c6)C(C)(C)[C@@H]5CC[C@]43C)[C@@H]12` [Example 123, 4-((1R,3aS,5aR,5bR,7aR,11aS,11bR,13aR,13bR)-3a-((3-(1,1-dioxido-4-thiomorpholinyl)propyl)carbamoyl)-1-isopropenyl-5a,5b,8,8,11a-pentamethyl-2,3,3a,4,5,5a,5b,6,7,7a,8,11,11a,11b,12,13,13a,13b-octadecahydro-1H-cyclopenta[a]chrysen-9-yl)-2,6-difluorobenzoic acid] belongs under 100 nM. `C=C(C)[C@@H]1CC[C@]2(C(=O)NCC(c3cccnc3)N(C)C)CC[C@]3(C)[C@H](CC[C@@H]4[C@@]5(C)CC=C(c6ccc(C(=O)O)cc6)C(C)(C)[C@@H]5CC[C@]43C)[C@@H]12` (stereo partly drawn) [Example 35, 4-((1R,3aS,5aR,5bR,7aR,11aS,11bR,13aR,13bR)-3a-(2-(dimethylamino)-2-(pyridin-3-yl)ethylcarbamoyl)-5a,5b,8,8,11a-pentamethyl-1-(prop-1-en-2-yl)-2,3,3a,4,5,5a,5b,6,7,7a,8,11,11a,11b,12,13,13a,13b-octadecahydro-1H-cyclopenta[a]chrysen-9-yl)benzoic acid]: the EC50 is under 100 nM. The same measure, in the same setting: to `C=C(C)[C@@H]1CC[C@]2(C(=O)NCCN(C)C)CC[C@]3(C)[C@H](CC[C@@H]4[C@@]5(C)CC=C(c6cc(F)c(C(=O)O)c(F)c6)C(C)(C)[C@@H]5CC[C@]43C)[C@@H]12` [Example 122, 4-((1R,3aS,5aR,5bR,7aR,11aS,11bR,13aR,13bR)-3a-(2-(dimethylamino)ethylcarbamoyl)-5a,5b,8,8,11a-pentamethyl-1-(prop-1-en-2-yl)-2,3,3a,4,5,5a,5b,6,7,7a,8,11,11a,11b,12,13,13a,13b-octadecahydro-1H-cyclopenta[a]chrysen-9-yl)-2,6-difluorobenzoic acid] belongs under 100 nM. The same measure, in the same setting: to `C=C(C)[C@@H]1CC[C@]2(C(=O)NCCC(=O)N3CCC(C(=O)O)CC3)CC[C@]3(C)[C@H](CC[C@@H]4[C@@]5(C)CC=C(c6ccc(C(=O)O)cc6)C(C)(C)[C@@H]5CC[C@]43C)[C@@H]12` [Example 49, 1-(3-((1R,3aS,5aR,5bR,7aR,11aS,11bR,13aR,13bR)-9-(4-carboxyphenyl)-5a,5b,8,8,11a-pentamethyl-1-(prop-1-en-2-yl)-2,3,3a,4,5,5a,5b,6,7,7a,8,11,11a,11b,12,13,13a,13b-octadecahydro-1H-cyclopenta[a]chrysene-3a-carboxamido)propanoyl)piperidine-4-carboxylic acid] belongs under 100 nM; to `C=C(C)[C@@H]1CC[C@]2(C(=O)NCc3ccoc3)CC[C@]3(C)[C@H](CC[C@@H]4[C@@]5(C)CC=C(c6ccc(C(=O)O)cc6)C(C)(C)[C@@H]5CC[C@]43C)[C@@H]12` [Example 126, 4-((1R,3aS,5aR,5bR,7aR,11aS,11bR,13aR,13bR)-3a-(furan-3-ylmethylcarbamoyl)-5a,5b,8,8,11a-pentamethyl-1-(prop-1-en-2-yl)-2,3,3a,4,5,5a,5b,6,7,7a,8,11,11a,11b,12,13,13a,13b-octadecahydro-1H-cyclopenta[a]chrysen-9-yl)benzoic acid], under 100 nM.
